{"source": "patent US20260240819A1", "about": "“KAT6 INHIBITOR METHODS AND COMBINATIONS FOR CANCER TREATMENT” (Pfizer Inc., priority 2020, published 2026)", "key": {"T47D cells [1]": {"test_system": "T47D cells", "test": "Palbociclib growth arrest and recovery, cell counts", "assay_type": "cell-based", "details": "500 nM palbociclib", "protocol": "T47D and MCF7 were confirmed as ER+ breast cancer cell lines using short tandem repeat (“STR”) testing (ATCC STR profiling service). […] After allowing 18-24 hours for the cells to attach to the plates, 500 nM palbociclib was added to each culture. Growth media and palbociclib was refreshed twice per week (every 3-4 days). […] For T47D cultures, the cells were suspended by trypsinization from triplicate cultures on days 1, 14, and 24 of palbociclib treatment and the cell density of each suspension was measured using a Vi-Cell XR cell counter. In a separate experiment, three additional T47D cultures were treated for 14 days with 500 nM palbociclib, then the palbociclib was washed off the cells and the cells were allowed to recover for 10 days. After 10 days of recovery, the cells were suspended by trypsinization and the cell density of each suspension was measured by cell counter."}, "MCF7 cells": {"test_system": "MCF7 cells", "test": "Palbociclib growth arrest and recovery, cell counts", "assay_type": "cell-based", "details": "MCF7, 500 nM palbociclib", "protocol": "T47D and MCF7 were confirmed as ER+ breast cancer cell lines using short tandem repeat (“STR”) testing (ATCC STR profiling service). […] After 6 and 14 days of palbociclib treatment, the cells in each well were suspended by trypsinization and cell densities were measured by cell counter. For the additional MCF7 cultures that were treated, in parallel, for either 6 or 14 days with 500 nM palbociclib, the palbociclib was washed off the cells and they were allowed 7-8 days to recover. After this recovery period, the cells were suspended by trypsinization and the cell densities of each suspension were measured. Similar to the T47D cells, palbociclib treatment stably arrested MCF7 cells for up to 14 days of treatment (FIG. 1B). However, after removing palbociclib from the MCF7 cultures treated for either 6 or 14 days, the cells readily re-entered the cell cycle and proliferated."}, "CAMA1 cells": {"test_system": "CAMA1 cells", "test": "Profiling of the response of CAMA1 to palbociclib", "assay_type": "cell-based"}, "[2]": {"test_system": "ERα protein in MCF7 cells", "test": "Western blot after palbociclib treatment", "assay_type": "cell-based", "details": "MCF7, 500 nM palbociclib, 8 days", "protocol": "(§1) Cells were seeded into 6-well culture plates and allowed to attach overnight at 37° C., 5% CO2. […] Medium was refreshed every 3 days. At 3, 6 and 8 days of treatment, cells were harvested for protein and RNA lysates."}, "[3]": {"test_system": "ERα protein in T47D cells", "test": "Western blot after palbociclib treatment", "assay_type": "cell-based", "details": "500 nM palbociclib, 8 days", "protocol": "as §1"}, "[4]": {"test_system": "ER+ breast cancer PDX model ST340", "test": "PDX tumor growth inhibition study", "assay_type": "in vivo, female athymic nude mice", "details": "doses per Table 7; for % TGI Delta: PDX ST340, day 21, compared to Vehicle", "protocol": "(§2) Combination studies with palbociclib, fulvestrant and the KAT6 inhibitor, Compound E (KAT6i), were performed in two ER+ breast cancer PDX models: ST340 and ST941. ST340 was wildtype for ESR1. […] Both studies were conducted by XenoSTART (San Antonio, Texas), where 6-12 week-old female athymic nude mice (JAX, stock #007850) were subcutaneously implanted with ~70 mg tumor fragments. Animals were supplemented with exogenous estradiol ad libitum via drinking water throughout the duration of the studies. Tumor measurements and animal weights were captured twice per week, and animals were stratified and enrolled into the study when the mean tumor volume (TV, formula: width^2×length×0.5) reached 150-300 mm^3.\n(§3) Each study contained eight treatment groups of n=10 animals per group. The groups were as follows: 1) Vehicle (5% DMSO/40% PEG300/55% 1×PBS), 2) Compound E, 3) palbociclib, 4) fulvestrant, 5) palbociclib+fulvestrant, 6) Compound E +fulvestrant, 7) Compound E+palbociclib, and 8) Compound E+palbociclib+fulvestrant. Animals remained on study and were continued on treatments until the mean tumor volume of each group reached ~1500 mm^3. At that point, the final dose was administered, animals were sacrificed, and terminal samples were collected. Blood microsamples were collected from each group for pharmacokinetics (PK) analysis at 0, 3, and 7 hrs (n=3/timepoint) on day 14 of dosing and again on the terminal day of dosing.\n(§4) Analysis of covariance (ANCOVA) was used to determine statistical significance when comparing percent TGI between groups. Changes in bodyweights were calculated in relation to starting bodyweights at study initiation (day 0 of treatment)."}, "[5]": {"test": "Bodyweight and health monitoring, PDX ST340 study", "assay_type": "in vivo, female athymic nude mice", "details": "relative to day 0", "protocol": "as §2, §3, §4"}, "[6]": {"test": "Bodyweight and health monitoring, PDX ST941 study", "assay_type": "in vivo, female athymic nude mice", "details": "relative to day 0", "protocol": "as §2, §3, §4"}, "T47D cells [7]": {"test_system": "T47D cells", "test": "Proliferation colony formation assay (SRB stain)", "assay_type": "cell-based", "protocol": "(§5) T47D, ZR-75-1, or MCF7 cells were seeded into 6-well tissue culture plates at 10% seeding confluence (100,000-150,000 cells per well). After allowing 18-24 hours for the cells to attach to the wells, growth media was aspirated and discarded and new growth media containing 0-20 μM of either COMPOUND A or COMPOUND B was added in 2-fold increments of descending concentration from 20 μM to the cells (proliferation assay). In parallel, seeded cultures with the same titration of the KAT6 inhibitors was added to the cells. 500 nM palbociclib was also added for each concentration of the KAT6 inhibitors (palbociclib recovery assay). The cultures were incubated 12-14 days and treated with these inhibitors/inhibitor combinations. Growth media containing the inhibitors was replaced on the cell cultures every 3-4 days (twice per week).\nFor the KAT6 inhibitor treated T47D cultures (proliferation assay), after 12 days the vehicle (DMSO) treated cultures were >90% confluent and the cell cultures were SRB stained as described in Example 3. The stained 6-well plates were scanned using an Epson Perfection V600 Photo Scanner and Epson Scan version 3.9.2.0 software. To quantitate SRB staining in each 6-well culture, the cultures were destained with 2 mL 10 mM Tris pH 7.5 per well and the absorbance at 565 nm (O.D. 565) of the released stain was measured using a SpectraMax Plus plate reader and SoftMaxPro 5.4.3 software. Inhibition of T47D cell proliferation by both COMPOUND A and COMPOUND B were equivalent with 50% proliferation inhibition observed with 10 μM of the KAT6 inhibitors (FIGS. 8A and 8C).\nCells were plated at low density into 6-well culture dishes and allowed to attach overnight at 37° C., 5% CO2. The next day, in parallel to the proliferation set, palbociclib was added at a final concentration of […] to another set of plates, which served as the set for palbociclib recovery. To both proliferation and palbociclib recovery plates, DMSO or KAT6 inhibitor was added into each well at increasing doses. Medium and KAT6 inhibitor were refreshed twice a week. Cells were cultured for about two weeks of drug treatment until the DMSO-treated wells reached confluency. At the end of treatment, cells were washed once with phosphate-buffered saline and were fixed and stained with SRB for visualization followed by quantification. […] Wells were fixed and stained with SRB for visualization followed by quantification. To quantify the stain, stained cells were dissolved in 2 mL of 10 mM Tris-HCl, pH 7.5 and shaken for 10 min on a shaker. Samples were then diluted with 10 mM Tris-HCl, pH 7.5, transferred to a 96-well microtiter plate in a volume of 100 μL and read on SpetraMax at 565 nm."}, "ZR-75-1 cells": {"test_system": "ZR-75-1 cells", "test": "Proliferation colony formation assay (SRB stain)", "assay_type": "cell-based", "protocol": "as §5\nFor the ZR-75-1 and MCF7 experiments, only COMPOUND A was tested. For the single agent treated ZR-75-1 cultures the vehicle treated cultures were >90% confluent after 12 days of treatment. These cultures were SRB stained, scanned, and destained/measured as described above. […] After 22 days of recovery, the ZR-75-1 cultures that had been treated with single agent 500 nM palbociclib were >90% confluent and these palbociclib recovery assay cultures were SRB stained, scanned, and destained/measured as described above.\nCells were plated at low density into 6-well culture dishes and allowed to attach overnight at 37° C., 5% CO2. […] At the end of treatment, cells were washed once with phosphate-buffered saline and were fixed and stained with SRB for visualization followed by quantification. […] Wells were fixed and stained with SRB for visualization followed by quantification. To quantify the stain, stained cells were dissolved in 2 mL of 10 mM Tris-HCl, pH 7.5 and shaken for 10 min on a shaker. Samples were then diluted with 10 mM Tris-HCl, pH 7.5, transferred to a 96-well microtiter plate in a volume of 100 μL and read on SpetraMax at 565 nm."}, "[8]": {"test_system": "estradiol response genes in T47D cells", "test": "RNA-Seq gene set enrichment analysis", "assay_type": "cell-based", "details": "20 nM, 6-day treatment, GSEA", "protocol": "The following day, cells were treated with vehicle control (DMSO) or COMPOUND C at 20 nM concentration. Media and compounds were refreshed three days later for a total of 6-day treatment. At the end of the 6-day treatment, cells were harvested by trypsinization and lysed in Buffer RLT (Qiagen, Cat No./ID 79216)^+β-mercaptoethanol. RNA lysates were submitted for RNA sequencing (“RNA-Seq”) (WuXi NextCODE®).\nRNA-Seq data analysis: Adapter sequences were trimmed off from the Illumina raw reads, provided by WuXi NextCODE®, using Trimmomatic (v0.36) for paired-end reads, and low-quality reads were filtered out. Reads remaining after the pre-processing step were mapped to the reference genome hg38 using STAR (v2.6.0c). Gene level expression was quantitated as expected counts and transcripts per million (TPM) using “rsem-calculate-expression” of RSEM (v1.3.0) with default parameters. Differential expression analysis of robustly expressed genes (max expression across samples >=10) was performed using DESeq2 (v1.18.1) package. Gene set enrichment analysis (GSEA, v3.0) was conducted using GseaPreranked option. Genes were ranked based on signedlog10pval. Gene set collections (c2.all.v6.1) from Molecular Signatures Database (MSigDB) were used in this analysis."}, "[9]": {"test_system": "ERα and Cyclin D1 in T47D cells", "test": "Western blot after KAT6 inhibitor dose titration", "assay_type": "cell-based", "details": "increasing concentrations, 14 days", "protocol": "Cells were plated at 10,000 cells per well into 6-well culture dishes and allowed to attach overnight at 37° C., 5% CO2. The next day, either COMPOUND C or COMPOUND D was added to wells at increasing concentrations, in addition to DMSO as vehicle control. Cells were cultured for 14 days with medium and KAT6 inhibitor refreshed twice a week (every 3-4 days). At the end of drug treatment, one million cells were collected via trypsinization for protein lysates. Cells were lysed in 100 μL 1× LDS buffer diluted from 4× LDS buffer (ThermoFisher catalog #NP0007) with reducing agent (ThermoFisher catalog #NP0009). The lysates were subsequently sonicated and loaded onto a NuPAGE 4-12% Bis-Tris gel (ThermoFisher, catalog #NP0321BOX) followed by electrophoresis. Gels were then transferred onto a nitrocellulose membrane (iBlot2, ThermoFisher). Membranes were blocked and incubated overnight at 4° C. with following antibodies: anti-ERα (D8H8) Rabbit mAb (#8644, Cell Signaling) and anti-β-actin (8H10D10) mouse mAb (Cell Signaling, #3700S). […]"}}}
{"smiles": "CC(=O)c1c(C)c2cnc(Nc3ccc(N4CCNCC4)cn3)nc2n(C2CCCC2)c1=O", "note": "[Palbociclib, 6-acetyl-8-cyclopentyl-5-methyl-2-(5-piperazin-1-yl-pyridin-2-ylamino)-8H-pyrido[2,3-d]pyrimidin-7-one]", "values": [{"measurement": "Effect on cell cycle", "setting": "T47D cells [1]", "result": "complete cell cycle arrest"}, {"measurement": "Reversibility of growth arrest", "setting": "T47D cells [1]; after withdrawal", "result": "reversible upon palbociclib withdrawal"}, {"measurement": "Effect on cell cycle", "setting": "MCF7 cells", "result": "complete cell cycle arrest"}, {"measurement": "Reversibility of growth arrest", "setting": "MCF7 cells; after withdrawal", "result": "reversible upon palbociclib withdrawal"}, {"measurement": "Effect of single agent treatment on proliferation", "setting": "CAMA1 cells", "result": "irreversible proliferation arrest"}, {"measurement": "Reduction of ERα protein level", "setting": "[2]", "result": "about 50%"}, {"measurement": "Reduction of ERα protein level", "setting": "[3]", "result": "about 50%"}, {"measurement": "% TGI Delta", "setting": "[4]", "result": 43.7, "unit": "%"}, {"measurement": "% TGI Delta", "setting": "[4]; listed as palbociclib", "result": "~ 40%"}, {"measurement": "Mean ± SEM (day 21)", "setting": "[4]; PDX ST340, tumor volume (mm^3)", "result": "1051.4 ± 134"}, {"measurement": "Day 21 mean change in bodyweight", "setting": "[5]", "result": "−2", "unit": "%"}, {"measurement": "Maximum mean bodyweight loss", "setting": "[5]", "result": "−3", "unit": "%"}, {"measurement": "Day 17 mean change in bodyweight", "setting": "[6]", "result": "−1", "unit": "%"}, {"measurement": "Maximum mean bodyweight loss", "setting": "[6]", "result": "−3", "unit": "%"}]}
{"smiles": "COc1cccc(OC)c1S(=O)(=O)Nc1noc2cc(Cn3cccn3)cc(OC)c12", "note": "[COMPOUND C, 2,6-dimethoxy-N-{4-methoxy-6-[(1H-pyrazol-1-yl)methyl]-1,2-benzoxazol-3-yl}benzene-1-sulfonamide]", "values": [{"measurement": "Kind of effect on cell growth", "setting": "T47D cells [7]; dose titration", "result": "cytostatic"}, {"measurement": "Maximal reduction of growth", "setting": "T47D cells [7]; single agent, about two weeks", "result": "about 40%"}, {"measurement": "IC50", "setting": "ZR-75-1 cells; Homo sapiens, ZR-75-1, ZR75-1, single agent, about two weeks, read-out: Concentration giving 50% growth inhibition", "result": "~3.9", "unit": "nM"}, {"measurement": "Kind of effect on cell growth", "setting": "ZR-75-1 cells; ZR75-1, dose titration", "result": "strong dose-dependent cytotoxic effect"}, {"measurement": "NES (Normalized Enrichment Score), estradiol-induced genes", "setting": "[8]", "result": "−9,92"}, {"measurement": "NES (Normalized Enrichment Score), estradiol-repressed genes", "setting": "[8]", "result": 6.27}, {"measurement": "ERα and Cyclin D1 protein", "setting": "[9]", "result": "dose-dependent depletion"}]}
